Laboratory results reported in patent US20170183306A1, “CYCLIC COMPOUNDS HAVING A 1,3 DIAMINO-FUNCTIONALITY FOR USE IN THE TREATMENT OF HIV INFECTION” (Universite Paris Descartes, priority 2014, published 2017).
Where two headings read alike, the source gives them in different places.

Columns and labels:
[1] = system: Laï virus in MT2 cells (human lymphocytic cell line); assay: MT2 cells infected with Laï virus, real-time PCR of viral RNA of the supernatant; assay type: cell-based, HIV-1; conditions: for viral RNA of the supernatant, 10 μM / viral RNA of the supernatant, 25 μM / viral RNA of the supernatant, 50 μM / viral RNA of the supernatant, 100 μM: 3 days of culture, control = virus without any added compound; for viral replication in human lymphocytes (in words): summary of Table 3
Procedure: In an experiment, MT2 cells (human lymphocytic cell line) are infected with the Laï virus to a multiplicity of infection of 0.3 and incubated with compounds A, B, C or D at four different concentrations.
After 3 days of culture, real-time PCR quantification of the viral RNA of the supernatant is performed (COBAS Ampliprep/COBAS TaqMan HIV-1 assay, version 2).
The results are expressed as percentage of control (virus without any added compound) in Table 3.

HIV = conditions: cited from earlier work
J-Lat cells = assay: J-Lat cells, percentage of GFP-positive cells by cytometry; assay type: cell-based; conditions: 24 h, compound alone
Summary of the method: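 J-Lat cells (5.105 per well, RPMI/10% FBS) treated 24 h with compound alone at 37 °C. After PFA fixation, GFP-positive cells counted by flow cytometry and reported as percentage of living fluorescent cells.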

[2] = system: wild type NL4-3 virus (HIV-1) in HeLa-p4 cells; assay: HeLa-p4 single-cycle HIV-1 infectivity, beta-galactosidase CPRG test; assay type: cell-based; conditions: for activity at 50 µM: read-out: Hela-p4 CPRG 50 μM; for activity at 100 µM: read-out: Hela-p4 CPRG 100 μM
Summary of the method: (§1)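 HeLa CD4 LTR-LacZ cells infected with 1 ng p24 of wild-type NL4-3 alongside graded compound concentrations; β-galactosidase measured 48 h post-infection by CPRG colorimetry, expressed as percent of untreated virus control. Viability assessed by MTS absorbance at […].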

[3] = system: HIV in T CD4+ cells from HIV-infected patients; assay: HIV production by CD4+ T cells of HIV-infected, antiretroviral-treated, aviremic patients (real time PCR); assay type: cell-based, HIV-1; conditions: one line per patient; for Compound: ratio of the viral load of interest/viral load of negative control: compound alone
From the text: For experiments using primary cells obtained from HIV-infected, antiretroviral-treated, aviremic patients, total CD4+ cells are isolated by a MACS) Whole Blood MicroBead Technology (Miltenyi). Briefly, T CD4+ cells from whole blood are magnetically labeled with MACS MicroBeads and specific antibodies. Cells are separated in a MACS Column placed in a MACS Separator. The flow-through fraction can be collected as the negative fraction depleted of the labeled cells. The column is removed from the separator and the retained cells are eluted as the enriched, positively selected cell fraction. The T CD4+ cells were then cultured with a T cell activation/expansion kit (Miltenyi). The cells are activated for up to 3 days with Anti-Biotin MACSiBead Particle conjugated to monoclonal anti-biotin antibodies (anti CD2-biotin, […] and anti CD28-biotin). Expansion is achieved by adding IL-2 and fresh medium for 4 days. Then, these T CD4+ cells are considered as positive culture. A negative control was the same proportion of cells cultured without stimuli like antibodies and IL-2. The T CD4+ cells were cultured with compounds alone or in combination with antibodies or IL-2. The HIV production in cell culture media was measured by real time PCR (Cobas AmpliPrep/Cobas Taqman HIV-1 test, V2.0, Roche). The results are expressed in table 2 as a ratio of the viral load of interest/viral load of negative control or as a ratio of the viral load of interest/viral load of positive control.

HeLa-p4 cells = assay: Cell viability assay (MTS) on HeLa-p4 cells; assay type: cell-based; conditions: cell viability
Summary of the method: as §1

[4] = cited from earlier work
[5] = Human immunodeficiency virus 1, NL43, HeLaP4, 50 μM, 48 hours after infection, control = NL4-3 virus alone
[6] = Human immunodeficiency virus 1, NL43, HeLaP4, 100 μM, 48 hours after infection, control = NL4-3 virus alone
[7] = Human immunodeficiency virus 1, NL43, HeLaP4, 48 hours after infection, control = NL4-3 virus alone
[8] = Human immunodeficiency virus 1, NL43, HeLaP4, 48 h

Row | SMILES | J-lat 50 μM (J-Lat cells) | activity at 50 µM [2, 5] | activity at 100 µM [2, 6] | activity at 200 µM [2, 7] | Hela-p4 MTS 50 μM (HeLa-p4 cells) | Hela-p4 MTS 100 μM (HeLa-p4 cells) | Hela-p4 MTS 200 μM (HeLa-p4 cells) | other results
1 | COc1ccc(CCN2C[C@H](N)C[C@H](N)C2)cc1OC [Compound A] | – | – | – | – | – | – | – | viral RNA of the supernatant, 10 μM [1]: 130 percentage of control; viral RNA of the supernatant, 25 μM [1]: 60 percentage of control; viral RNA of the supernatant, 50 μM [1]: 50 percentage of control; viral RNA of the supernatant, 100 μM [1]: 73200 percentage of control; viral replication in human lymphocytes (in words) [1]: induce viral replication at an extremely high level
2 | COC(=O)C(Cc1ccccc1)N1C[C@H](N)C[C@H](N)C1 (stereo partly drawn) [Compound B] | – | – | – | – | – | – | – | viral RNA of the supernatant, 10 μM [1]: 420 percentage of control; viral RNA of the supernatant, 25 μM [1]: 40 percentage of control; viral RNA of the supernatant, 50 μM [1]: 70 percentage of control; viral RNA of the supernatant, 100 μM [1]: 32400 percentage of control; viral replication in human lymphocytes (in words) [1]: induce viral replication at an extremely high level
3 | N[C@@H]1C[C@H](N)CN(c2ccc(NC(=O)c3ccccc3)c(O)c2)C1 [Compound C] | – | – | – | – | – | – | – | viral RNA of the supernatant, 10 μM [1]: 21200 percentage of control; viral RNA of the supernatant, 25 μM [1]: 83500 percentage of control; viral RNA of the supernatant, 50 μM [1]: 66400 percentage of control; viral RNA of the supernatant, 100 μM [1]: 931700 percentage of control; viral replication in human lymphocytes (in words) [1]: induce viral replication at an extremely high level
4 | CCN(CC)C(=S)SSC(=S)N(CC)CC [Disulfirame] | – | – | – | – | – | – | – | capacity to induce HIV replication in clinical trial (HIV): low capacity to induce HIV replication
5 | N[C@@H]1CNC[C@H](N)C1 [ECO01-025-C2, piperidine-3,5-diamine] | 0.7 percentage of the living fluorescent cells | 166% | 280% | 317% | 104 | 79 | 70 | Compound: ratio of the viral load of interest/viral load of negative control [3]: 1
6 | CC(C)(C)OC(=O)N[C@@H]1CNC[C@H](NC(=O)OC(C)(C)C)C1 [ECO02-051-C] | 1.1 percentage of the living fluorescent cells | 124% | 200% | 397% | 95 | 96 | 77 | Compound: ratio of the viral load of interest/viral load of negative control [3]: 1; Compound + IL2: ratio of the viral load of interest/viral load of negative control ([3]; compound in combination with IL2): 1
7 | CN(C)c1ccc(CN2C[C@H](N)C[C@H](N)C2)cc1 [ECO02-069-B, 1-(4-(dimethylamino)benzyl)piperidine-3,5-diamine] | 1.3 percentage of the living fluorescent cells | – | – | – | 99 | 94 | – | activity at 50 µM [2, 8]: 86%; activity at 100 µM [2, 8]: 88%
8 | COc1cccc(CCN2C[C@H](NC(C)=O)C[C@H](NC(C)=O)C2)c1 [ECO02-072-C, N,N′-(1-(3-methoxyphenethyl)piperidine-3,5-diyl)diacetamide] | 2.1 percentage of the living fluorescent cells | 107% | 167% | 242% | 111 | 98 | 84 | –
9 | COc1cccc(CCN2C[C@H](NS(C)(=O)=O)C[C@H](NS(C)(=O)=O)C2)c1 [ECO02-073-B2, N,N′-(1-(3-methoxyphenethyl)piperidine-3,5-diyl)dimethanesulfonamide] | 0.6 percentage of the living fluorescent cells | 103% | 127% | 253% | 96 | 94 | 69 | –
10 | COC(=O)N[C@@H]1C[C@H](NC(=O)OC)CN(CCc2cccc(OC)c2)C1 [ECO02-074-C, dimethyl (1-(3-methoxyphenethyl)piperidine-3,5-diyl)dicarbamate] | 0.4 percentage of the living fluorescent cells | 139% | 186% | 326% | 101 | 91 | 70 | –
11 | COc1cccc(CCN2C[C@@H](N)C[C@@H](NC(=O)OC(C)(C)C)C2)c1 [ECO02-078-C] | 0.8 percentage of the living fluorescent cells | 251% | 390% | 145% | 105 | 103 | 25 | –
12 | CC(C)(C)OC(=O)N[C@@H]1C[C@H](NC(=O)OC(C)(C)C)CN(S(=O)(=O)c2ccccc2)C1 [ECO02-081-C, di-tert-butyl (1-(phenylsulfonyl)piperidine-3,5-diyl)dicarbamate] | 0.8 percentage of the living fluorescent cells | 196% | 207% | 279% | 91 | 69 | 77 | –
13 | N[C@@H]1C[C@H](N)CN(S(=O)(=O)c2ccccc2)C1 [ECO03-001-B, 1-(phenylsulfonyl)piperidine-3,5-diamine] | 0.6 percentage of the living fluorescent cells | 118% | 170% | 360% | 97 | 104 | 109 | –
14 | N[C@@H]1C[C@H](N)CN(c2ccc(NC(=O)c3ccccc3)cc2)C1 [ECO03-002-C, N-(4-(3,5-diaminopiperidin-1-yl)phenyl)benzamide] | 0.5 percentage of the living fluorescent cells | 120% | 165% | 317% | 115 | 116 | 74 | –
15 | COc1cccc(CCN2C[C@H](NC(=O)OC(C)(C)C)C[C@H](NC(=O)OC(C)(C)C)C2)c1 [ECO03-03-C, di-tert-butyl (1-(3-methoxyphenethyl)piperidine-3,5-diyl)dicarbamate] | 0.4 percentage of the living fluorescent cells | 148% | 341% | 440% | 105 | 104 | 104 | –
16 | Cc1[nH]c2ccccc2c1CCNCc1ccc(/C=C/C(=O)NO)cc1 [LBH589] | – | – | – | – | – | – | – | adverse effects in clinical trials ([4]; in vivo): important adverse effects
17 | COc1ccc(CN2C[C@H](N)C[C@H](N)C2)cc1OC [PDA25, 1-(3,4-dimethoxybenzyl)piperidine-3,5-diamine] | 0 percentage of the living fluorescent cells | 183% | 184% | 227% | 97 | 93 | 58 | J-lat 100 μM (J-Lat cells): 0.2 percentage of the living fluorescent cells
18 | N[C@H]1CC(OCc2cn(CC(=O)c3cc4ccc3CCc3ccc(cc3)CC4)nn2)[C@@H](N)C1 (stereo partly drawn) [RA 20] | 0.1 percentage of the living fluorescent cells | 167% | 188% | – | 108 | 97 | – | J-lat 100 μM (J-Lat cells): 1.1 percentage of the living fluorescent cells
19 | C/C=C1\NC(=O)[C@H]2CSSCC/C=C/[C@H](CC(=O)N[C@H](C(C)C)C(=O)N2)OC(=O)[C@H](C(C)C)NC1=O [Romidepsin] | – | – | – | – | – | – | – | adverse effects in clinical trials ([4]; in vivo): important adverse effects
20 | O=C(CCCCCCC(=O)Nc1ccccc1)NO [vorinostat] | – | – | – | – | – | – | – | adverse effects in clinical trials ([4]; first results of on-going clinical trials): important adverse effects
